Experimental data: patent publication US12343472B2, “Powder preparation, cartridge, and device” (Shin Nippon Biomedical Laboratories, Ltd., priority 2018, dated 2025)
“And” between values parts separate entries of the source, which are not always exact repeats. Equal entries are not always repeated. Where two headings read alike, the source gives them in different places.

Assays:
[1] = in vivo; details: male, cynomolgus monkey, iv
Experimental: (§1) In order to measure the blood oxytocin concentration, blood was collected from the femoral vein with a syringe (dispensed into an EDTA-2K-containing blood collection tube) before administration and 2, 5, 10, 30, 60, 120, 240 and 480 minutes after administration (9 times in total). In order to measure the cerebrospinal fluid oxytocin concentration, cerebrospinal fluid was collected via a catheter indwelled in the cisterna magna before administration and 10, 30, 60, 120, 240 and 480 minutes after administration (7 times in total). The oxytocin concentration was measured by an EIA method involving an Oxytocin Enzyme Immunoassay Kit: Extraction-Free (Peninsula Laboratories International). This test was performed after being approved by the Animal Experimentation Ethics Committee of SNBL, Ltd.

[2] = Blood oxytocin concentration in monkey (EIA); type: in vivo, cynomolgus monkey; details: for AUC0-t / Cmax: blood oxytocin
Experimental: as §1

[3] = intravenous, individual animals

CC[C@H](C)[C@@H]1NC(=O)[C@H](Cc2ccc(O)cc2)NC(=O)[C@@H](N)CSSC[C@@H](C(=O)N2CCC[C@H]2C(=O)N[C@@H](CC(C)C)C(=O)NCC(N)=O)NC(=O)[C@H](CC(N)=O)NC(=O)[C@H](CCC(N)=O)NC1=O [Comparative Example 13, oxytocin]
level at 0.5 h [1]: 0.204 ng/mL
level at 1 h [1]: 0.11 ng/mL
level at 2 h [1]: 0.057 ng/mL
level at 4 h [1]: 0.005 ng/mL
Blood oxytocin concentration ([2]; 2 min, oxytocin solution (0.4 mg/mL) intravenous, individual animals): 222.00 ng/mL and 246.00 ng/mL and 205.00 ng/mL and 168.00 ng/mL and 202.00 ng/mL and 190.00 ng/mL
Blood oxytocin concentration ([2]; 5 min, intravenous, individual animals): 110.00 ng/mL and 101.00 ng/mL and 116.00 ng/mL and 68.00 ng/mL and 68.40 ng/mL and 105.00 ng/mL
Blood oxytocin concentration ([2]; 10 min, intravenous, individual animals): 48.40 ng/mL and 64.20 ng/mL and 55.10 ng/mL and 40.40 ng/mL and 50.00 ng/mL and 55.70 ng/mL
Blood oxytocin concentration ([2]; 30 min, intravenous, individual animals): 10.50 ng/mL and 15.00 ng/mL and 11.80 ng/mL and 7.10 ng/mL and 9.60 ng/mL and 11.60 ng/mL
Blood oxytocin concentration ([2]; 60 min, intravenous, individual animals): 2.80 ng/mL (2×) and 4.50 ng/mL and 2.90 ng/mL and 2.50 ng/mL and 2.60 ng/mL
Blood oxytocin concentration ([2]; 120 min, intravenous, individual animals): 0.00 ng/mL (5×) and 1.10 ng/mL
Blood oxytocin concentration ([2]; 240 min, intravenous, average n=6): 0.00 ng/mL
Blood oxytocin concentration ([2]; 240 min, intravenous, individual animals): 0.00 ng/mL
Blood oxytocin concentration ([2]; 480 min, intravenous, average n=6): 0.00 ng/mL
Blood oxytocin concentration ([2]; 480 min, intravenous, individual animals): 0.00 ng/mL
AUC0-t [2, 3]: 47.345 ng·h/mL and 39.252 ng·h/mL and 28.695 ng·h/mL and 34.345 ng·h/mL and 37.415 ng·h/mL
Cmax [2, 3]: 246.00 ng/mL and 205.00 ng/mL and 168.00 ng/mL and 202.00 ng/mL and 190.00 ng/mL
AUC0-t ([2]; male, cynomolgus monkey, blood, iv, intravenous, average n=6, read-out: AUC0-t (converted)): 37.5 ng·h/mL
Cmax ([2]; male, cynomolgus monkey, blood, iv, intravenous, average n=6, read-out: Cmax): 206 ng/mL
AUC0-t ([2]; male, cynomolgus monkey, blood, iv, intravenous, individual animals, read-out: AUC0-t (converted)): 38.1 ng·h/mL
Cmax ([2]; male, cynomolgus monkey, blood, iv, intravenous, individual animals, read-out: Cmax): 222 ng/mL
level at […] ([2]; male, cynomolgus monkey, blood, 2 min, intravenous, average n=6): 206 ng/mL
level at […] ([2]; male, cynomolgus monkey, blood, 5 min, intravenous, average n=6): 94.7 ng/mL
level at […] ([2]; male, cynomolgus monkey, blood, 10 min, intravenous, average n=6): 52.3 ng/mL
level at 0.5 h ([2]; male, cynomolgus monkey, blood, 30 min, intravenous, average n=6): 10.9 ng/mL
level at 1 h ([2]; male, cynomolgus monkey, blood, 60 min, intravenous, average n=6): 3.02 ng/mL
level at 2 h ([2]; male, cynomolgus monkey, blood, 120 min, intravenous, average n=6): 0.18 ng/mL
